Assay results published in patent US20230081426A1, “COMPOUNDS AND METHODS FOR KRAS MODULATION AND INDICATIONS THEREFOR” (Plexxikon Inc., priority 2020, published 2023).

Experiments:
[1] = target: T1, G12D-mutant human KRAS (amino acid residues 1-188) (Homo sapiens, UniProt P01116, G12D); experiment: KRAS Binding Disruption Assay (AlphaScreen; biotinylated KRpep-2d analogue or RAF1-RBD), G12D; details: KRAS G12D; geometric mean; read-out: KRAS GMean IC50 (uM) MUTATION: G12D
T1 construct: G12D or G12C-mutant human KRAS (amino acid residues 1-188) with FLAG tag; made in house; host or cells: E. coli
Summary of the method: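 Displacement format with mutant KRAS, biotinylated KRpep-2d analogue or RAF1-RBD (5-20 nM each) at pH 7.5 with 5 mM MgCl2.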

[2] = target: T2, G12V-mutant human KRAS (amino acid residues 1-188) (Homo sapiens, UniProt P01116, G12V); experiment: KRAS Binding Competition Assay (AlphaScreen; biotinylated KRpep-2d analogue), G12V; details: geometric mean, read-out: KRAS GMean IC50 (uM) MUTATION: G12V
T2 construct: G12V-mutant human KRAS (amino acid residues 1-188) with FLAG tag was purified from E. coli; made in house; host or cells: E. coli

IC50 [1] [µM] | IC50 [2] [µM] | SMILES
10 to 100 | 100 to 1000 | CN1CCC[C@H]1COc1nc(N2C[C@H]3CC[C@@H](C2)N3)c2ccc(-c3cc4ccccc4s3)cc2n1 [P-0153, 7-(benzo[b]thiophen-2-yl)-4-((1R,5S)-3,8-diazabicyclo[3.2.1]octan-3-yl)-2-(((S)-1-methylpyrrolidin-2-yl)methoxy)quinazoline]
10 to 100 | 10 to 100 | CN1CCC[C@H]1COc1nc(N2C[C@H]3CC[C@@H](C2)N3)c2ccc(-c3csc4ccccc34)cc2n1 [P-0154, 7-(benzo[b]thiophen-3-yl)-4-((1R,5S)-3,8-diazabicyclo[3.2.1]octan-3-yl)-2-(((S)-1-methylpyrrolidin-2-yl)methoxy)quinazoline]
100 to 1000 | 10 to 100 | Cc1cc2cn[nH]c2cc1-c1ccc2c(N3C[C@H]4CC[C@@H](C3)N4)nc(OCC3CCCN3C)nc2c1 (stereo partly drawn) [P-0155, 4-((1R,5S)-3,8-diazabicyclo[3.2.1]octan-3-yl)-7-(5-methyl-1H-indazol-6-yl)-2-((1-methylpyrrolidin-2-yl)methoxy)quinazoline]
100 to 1000 | 100 to 1000 | CC(=O)Nc1cccc(-c2ccc3c(N4C[C@H]5CC[C@@H](C4)N5)nc(OCC4CCCN4C)nc3c2)c1 (stereo partly drawn) [P-0156, N-(3-(4-((1R,5S)-3,8-diazabicyclo[3.2.1]octan-3-yl)-2-((1-methylpyrrolidin-2-yl)methoxy)quinazolin-7-yl)phenyl)acetamide]
10 to 100 | 100 to 1000 | CN1CCC[C@H]1COc1nc(N2C[C@H]3CC[C@@H](C2)N3)c2ccc(-c3cc(N)c(Cl)cc3Cl)cc2n1 [P-0157, 5-(4-((1R,5S)-3,8-diazabicyclo[3.2.1]octan-3-yl)-2-(((S)-1-methylpyrrolidin-2-yl)methoxy)quinazolin-7-yl)-2,4-dichloroaniline]
10 to 100 | 10 to 100 | CN1CCC[C@H]1COc1nc(N2C[C@H]3CC[C@@H](C2)N3)c2ccc(-c3cc(N)cc(F)c3F)cc2n1 [P-0158, 3-(4-((1R,5S)-3,8-diazabicyclo[3.2.1]octan-3-yl)-2-(((S)-1-methylpyrrolidin-2-yl)methoxy)quinazolin-7-yl)-4,5-difluoroaniline]
100 to 1000 | 100 to 1000 | CN1CCC[C@H]1COc1nc(N2C[C@H]3CC[C@@H](C2)N3)c2ccc(-c3ccc4c(c3)NC(=O)CO4)cc2n1 [P-0159, 6-(4-((1R,5S)-3,8-diazabicyclo[3.2.1]octan-3-yl)-2-(((S)-1-methylpyrrolidin-2-yl)methoxy)quinazolin-7-yl)-2H-benzo[b][1,4]oxazin-3(4H)-one]
100 to 1000 | 100 to 1000 | CC(=O)Nc1cncc(-c2ccc3c(N4C[C@H]5CC[C@@H](C4)N5)nc(OC[C@@H]4CCCN4C)nc3c2)c1 [P-0160, N-(5-(4-((1R,5S)-3,8-diazabicyclo[3.2.1]octan-3-yl)-2-(((S)-1-methylpyrrolidin-2-yl)methoxy)quinazolin-7-yl)pyridin-3-yl)acetamide]
0.0001 to 10 | 100 to 1000 | Cc1ccc2[nH]ncc2c1-c1ccc2c(N3C[C@H]4CC[C@@H](C3)N4)nc(OC[C@@H]3CCCN3C)nc2c1 [P-0161, 4-((1R,5S)-3,8-diazabicyclo[3.2.1]octan-3-yl)-7-(5-methyl-1H-indazol-4-yl)-2-(((S)-1-methylpyrrolidin-2-yl)methoxy)quinazoline]
100 to 1000 | 100 to 1000 | CN1CCC[C@H]1COc1nc(N2C[C@H]3CC[C@@H](C2)N3)c2ccc(-c3ccc4cn[nH]c4c3)cc2n1 [P-0162, 4-((1R,5S)-3,8-diazabicyclo[3.2.1]octan-3-yl)-7-(1H-indazol-6-yl)-2-(((S)-1-methylpyrrolidin-2-yl)methoxy)quinazoline]

The next lines start with the compound.

SMILES | IC50 [1] [µM] | IC50 [2] [µM]
CN1CCC[C@H]1COc1nc(N2C[C@H]3CC[C@@H](C2)N3CC(N)=O)c2ccc(-c3cc(O)cc4ccccc34)c(F)c2n1 [P-0144, 2-((1R,5S)-3-(8-fluoro-7-(3-hydroxynaphthalen-1-yl)-2-(((S)-1-methylpyrrolidin-2-yl)methoxy)quinazolin-4-yl)-3,8-diazabicyclo[3.2.1]octan-8-yl)acetamide] | 0.0001 to 10 | 0.0001 to 10
CN1CCC[C@H]1COc1nc(N2[C@@H]3CC[C@H]2CN(CCO)C3)c2ccc(-c3cc(O)cc4ccccc34)cc2n1 [P-0145, 4-(4-((1R,5S)-3-(2-hydroxyethyl)-3,8-diazabicyclo[3.2.1]octan-8-yl)-2-(((S)-1-methylpyrrolidin-2-yl)methoxy)quinazolin-7-yl)naphthalen-2-ol] | 10 to 100 | 10 to 100
CN(C)CCCC(=O)N1[C@@H]2CC[C@H]1CN(c1nc(OCC34CCCN3CCC4)nc3c(F)c(-c4cc(O)cc5ccccc45)ccc13)C2 [P-0146, 4-(dimethylamino)-1-((1R,5S)-3-(8-fluoro-7-(3-hydroxynaphthalen-1-yl)-2-((tetrahydro-1H-pyrrolizin-7a(5H)-yl)methoxy)quinazolin-4-yl)-3,8-diazabicyclo[3.2.1]octan-8-yl)butan-1-one] | 0.0001 to 10 | 0.0001 to 10
O=C(C1C2CCC1CNC2)N1[C@@H]2CC[C@H]1CN(c1nc(OCC34CCCN3CCC4)nc3c(F)c(-c4cc(O)cc5ccccc45)ccc13)C2 (stereo partly drawn) [P-0147, (3-azabicyclo[3.2.1]octan-8-yl)((1R,5S)-3-(8-fluoro-7-(3-hydroxynaphthalen-1-yl)-2-((tetrahydro-1H-pyrrolizin-7a(5H)-yl)methoxy)quinazolin-4-yl)-3,8-diazabicyclo[3.2.1]octan-8-yl)methanone] | 0.0001 to 10 | 0.0001 to 10
CN1CCC[C@H]1COc1nc(N2[C@@H]3CC[C@H]2CNC3)c2ccc(-c3cccc(C(N)=O)n3)cc2n1 [P-0148, 6-(4-((1R,5S)-3,8-diazabicyclo[3.2.1]octan-8-yl)-2-(((S)-1-methylpyrrolidin-2-yl)methoxy)quinazolin-7-yl)picolinamide] | 100 to 1000 | 10 to 100
CN1CCC(CC(=O)N2[C@@H]3CC[C@H]2CN(c2nc(OCC45CCCN4CCC5)nc4c(F)c(-c5cc(O)cc6ccccc56)ccc24)C3)CC1 [P-0149, 1-((1R,5S)-3-(8-fluoro-7-(3-hydroxynaphthalen-1-yl)-2-((tetrahydro-1H-pyrrolizin-7a(5H)-yl)methoxy)quinazolin-4-yl)-3,8-diazabicyclo[3.2.1]octan-8-yl)-2-(1-methylpiperidin-4-yl)ethan-1-one] | 0.0001 to 10 | 0.0001 to 10
O=C(CCCN1CCCCC1)N1[C@@H]2CC[C@H]1CN(c1nc(OCC34CCCN3CCC4)nc3c(F)c(-c4cc(O)cc5ccccc45)ccc13)C2 [P-0150, 1-((1R,5S)-3-(8-fluoro-7-(3-hydroxynaphthalen-1-yl)-2-((tetrahydro-1H-pyrrolizin-7a(5H)-yl)methoxy)quinazolin-4-yl)-3,8-diazabicyclo[3.2.1]octan-8-yl)-4-(piperidin-1-yl)butan-1-one] | 0.0001 to 10 | 0.0001 to 10
CN1CCC[C@H]1COc1nc(N2C[C@H]3CC[C@@H](C2)N3)c2ccc(-c3ccccc3)cc2n1 [P-0151, 4-((1R,5S)-3,8-diazabicyclo[3.2.1]octan-3-yl)-2-(((S)-1-methylpyrrolidin-2-yl)methoxy)-7-phenylquinazoline] | 100 to 1000 | 100 to 1000
Cc1ccc(N)cc1-c1ccc2c(N3C[C@H]4CC[C@@H](C3)N4)nc(OC[C@@H]3CCCN3C)nc2c1 [P-0152, 3-(4-((1R,5S)-3,8-diazabicyclo[3.2.1]octan-3-yl)-2-(((S)-1-methylpyrrolidin-2-yl)methoxy)quinazolin-7-yl)-4-methylaniline] | 10 to 100 | 10 to 100
